From patent US8951964B2, “Phenanthridine macrocyclic hepatitis C serine protease inhibitors” (priority 2010, dated 2015)

How the values were obtained:
Format in all cases: cell-based, HCV
[1] = test system: genotype 1b replicon (1b-Con1, 1b-N); experiment: 1b stable replicon (luciferase reporter); conditions: Hepatitis C virus, HuH-7 cells, 5% FBS
[2] = test system: genotype 1b transient replicon; experiment: 1b transient replicon (luciferase reporter); conditions: Hepatitis C virus, HuH-7 cells, 5% FBS
[3] = test system: genotype 1a replicon (1a-H77); experiment: 1a stable replicon (luciferase reporter); conditions: Hepatitis C virus, Huh-7, luciferase reporter, HuH-7 cells, 5% FBS
[4] = test system: genotype 3a NS3 gene in transient replicon; experiment: 3a transient replicon (luciferase reporter); conditions: Hepatitis C virus, Huh-7, read-out: 3a transient replicon (nM)
[5] = test system: genotype 1a transient replicon (1a-H77); experiment: 1a transient replicon (luciferase reporter); conditions: Hepatitis C virus, HuH-7 cells, 5% FBS

SMILES | EC50 [1] [nM] | EC50 [2] [nM] | EC50 [3] [nM] | EC50 [4] [nM] | EC50 [5] [nM]
Cc1cc(C(=O)N[C@H]2CCCCC/C=C\[C@@H]3C[C@@]3(C(=O)NS(=O)(=O)C3CC3)NC(=O)[C@@H]3C[C@@H](Oc4nc5cc(F)ccc5c5cc(F)ccc45)CN3C2=O)no1 | 0.1 to 0.5 | 0.1 to 0.5 | 0.1 to 0.5 | > 1 | 0.1 to 0.5
Cc1cc(C(=O)N[C@H]2CCCCC/C=C\[C@@H]3C[C@@]3(C(=O)NS(=O)(=O)C3CC3)NC(=O)[C@@H]3C[C@@H](Oc4nc5ccccc5c5ccc(F)cc45)CN3C2=O)no1 | 0.1 to 0.5 | 0.1 to 0.5 | 0.1 to 0.5 | > 1 | < 0.1
Cn1ccc(C(=O)N[C@H]2CCCCC/C=C\[C@@H]3C[C@@]3(C(=O)NS(=O)(=O)C3CC3)NC(=O)[C@@H]3C[C@@H](Oc4nc5cc(F)ccc5c5cc(OC(F)(F)F)ccc45)CN3C2=O)n1 | < 0.1 | 0.1 to 0.5 | 0.5 to 1 | > 1 | 0.1 to 0.5
CC1(S(=O)(=O)NC(=O)[C@@]23C[C@H]2/C=C\CCCCC[C@H](NC(=O)c2ccon2)C(=O)N2C[C@H](Oc4nc5cc(F)ccc5c5cc(F)ccc45)C[C@H]2C(=O)N3)CC1 | 0.1 to 0.5 | < 0.1 | 0.1 to 0.5 | > 1 | < 0.1
COc1ccc2c(c1)c(O[C@@H]1C[C@H]3C(=O)N[C@]4(C(=O)NS(=O)(=O)C5CC5)C[C@H]4/C=C\CCCCC[C@H](NC(=O)c4cc(C)on4)C(=O)N3C1)nc1ccccc12 | 0.5 to 1 | 0.1 to 0.5 | 0.1 to 0.5 | > 1 | < 0.1
CC1(S(=O)(=O)NC(=O)[C@@]23C[C@H]2/C=C\CCCCC[C@H](NC(=O)[C@@H](O)C(F)(F)F)C(=O)N2C[C@H](Oc4nc5cc(F)ccc5c5ccccc45)C[C@H]2C(=O)N3)CC1 | 0.1 to 0.5 | 0.1 to 0.5 | 0.5 to 1 | > 1 | < 0.1
Cc1cc(C(=O)N[C@H]2CCCCC/C=C\[C@@H]3C[C@@]3(C(=O)NS(=O)(=O)C3(C)CC3)NC(=O)[C@@H]3C[C@@H](Oc4nc5cc(F)ccc5c5cc(F)ccc45)CN3C2=O)no1 | 0.1 to 0.5 | 0.1 to 0.5 | 0.1 to 0.5 | > 1 | < 0.1
CC1(S(=O)(=O)NC(=O)[C@@]23C[C@H]2/C=C\CCCCC[C@H](NC(=O)c2cncs2)C(=O)N2C[C@H](Oc4nc5cc(F)ccc5c5ccccc45)C[C@H]2C(=O)N3)CC1 | 0.5 to 1 | 0.1 to 0.5 | 0.5 to 1 | > 1 | < 0.1
Cc1cc(C(=O)N[C@H]2CCCCC/C=C\[C@@H]3C[C@@]3(C(=O)NS(=O)(=O)C3(C)CC3)NC(=O)[C@@H]3C[C@@H](Oc4nc5cc(F)ccc5c5ccccc45)CN3C2=O)no1 | 0.1 to 0.5 | 0.1 to 0.5 | 0.1 to 0.5 | > 1 | < 0.1
Cc1cc(C(=O)N[C@H]2CCCCC/C=C\[C@@H]3C[C@@]3(C(=O)NS(=O)(=O)C3(C)CC3)NC(=O)[C@@H]3C[C@@H](Oc4nc5cc(OC(F)(F)F)ccc5c5ccccc45)CN3C2=O)no1 | 0.1 to 0.5 | 0.1 to 0.5 | 0.5 to 1 | > 1 | 0.1 to 0.5
Cn1ccc(C(=O)N[C@H]2CCCCC/C=C\[C@@H]3C[C@@]3(C(=O)NS(=O)(=O)C3(C)CC3)NC(=O)[C@@H]3C[C@@H](Oc4nc5cc(OC(F)(F)F)ccc5c5ccccc45)CN3C2=O)n1 | < 0.1 | 0.1 to 0.5 | 0.1 to 0.5 | 0.1 to 0.5 | < 0.1
CC1(S(=O)(=O)NC(=O)[C@@]23C[C@H]2/C=C\CCCCC[C@H](NC(=O)c2cncs2)C(=O)N2C[C@H](Oc4nc5cc(F)ccc5c5cc(F)ccc45)C[C@H]2C(=O)N3)CC1 | 0.1 to 0.5 | 0.1 to 0.5 | > 1 | > 1 | < 0.1
Cc1cc(C(=O)N[C@H]2CCCCC/C=C\[C@@H]3C[C@@]3(C(=O)NS(=O)(=O)C3(C)CC3)NC(=O)[C@@H]3C[C@@H](Oc4nc5ccccc5c5ccc(F)cc45)CN3C2=O)no1 | 0.5 to 1 | 0.1 to 0.5 | 0.5 to 1 | > 1 | < 0.1
